In EP4471049A1 (Zealand Pharma A/S, priority 2023, dated 2024):
Blank lines part the entries; values can stand above or below the molecule they belong to. *1 amine or outer side, *2 acyl side, *3 side chain or, on linkers, in order; H or OH if unused. Where a SMILES comes first, the peptide text is derived from it. Bridges are numbered along the chain shown (N, C = ends). Where no end group is shown, it is not given here. [ ]: non-standard residue; d: D form. The star is where a group is joined. 4‑Aminomethyl‑phenylacetyl = 4-aminomethyl-phenylacetyl unit, its amine closes the lactam, O=C(Cc1ccc(CN[*:1])cc1)[*:2]; dGly‑CF3 = O=C([C@H](N[*:1])C(F)(F)F)[*:2]; 2Nal = N[C@@H](Cc1ccc2ccccc2c1)C(=O)O; AEF = NCCOc1ccc(C[C@H](N)C(=O)O)cc1; X1 = O=C(Cc1ccc(CN[*:1])cc1)[*:2]; 3Pal = N[C@@H](Cc1cccnc1)C(=O)O; αMeL = CC(C)C[C@](C)(N)C(=O)O; Pyrrolidide = C1CCN(*)C1; Dab = NCC[C@H](N)C(=O)O

Tests used:
human IL-23R = target: T1, human IL-23R (Homo sapiens, UniProt Q5VWK5); assay: biochemical; details: for Emax: read-out: % displacement (hIL-23R binding)
T1 sequence (Q5VWK5 22-629): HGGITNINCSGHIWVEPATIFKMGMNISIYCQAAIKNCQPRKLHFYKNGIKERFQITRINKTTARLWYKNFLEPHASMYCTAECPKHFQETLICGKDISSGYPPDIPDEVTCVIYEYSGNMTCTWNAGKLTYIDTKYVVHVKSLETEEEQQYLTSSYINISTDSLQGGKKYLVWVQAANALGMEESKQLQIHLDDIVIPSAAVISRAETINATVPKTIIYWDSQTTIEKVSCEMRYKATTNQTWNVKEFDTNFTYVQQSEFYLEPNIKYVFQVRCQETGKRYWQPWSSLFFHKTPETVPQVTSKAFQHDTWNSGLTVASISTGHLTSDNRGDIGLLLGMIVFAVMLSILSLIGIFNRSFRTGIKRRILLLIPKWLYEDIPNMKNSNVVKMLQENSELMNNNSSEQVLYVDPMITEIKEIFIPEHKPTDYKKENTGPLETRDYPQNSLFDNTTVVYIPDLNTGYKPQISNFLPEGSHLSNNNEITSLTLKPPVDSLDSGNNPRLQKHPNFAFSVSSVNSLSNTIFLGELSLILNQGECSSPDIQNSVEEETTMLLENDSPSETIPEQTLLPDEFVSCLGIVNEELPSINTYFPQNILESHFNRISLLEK
Text: The compound binding affinity for IL-23R was estimated by the ability of compounds to displace a fluorophore-labelled reference compound from the human IL-23R. The assay principle relies on Bioluminescence Resonance Energy Transfer (BRET) between a fluorophore-labelled reference compound binding to the IL-23R part of a fusion protein consisting of the IL-23R fused to a Nanoluc luciferase enzyme (Nanoluc). The Nanoluc is placed in the N-terminus in close proximity to the binding domain of the ligand. Upon close proximity between the fluorophore of the fluorophore-labelled compound and the Nanoluc of the fusion protein, bioluminescence energy generated from conversion of a Nanoluc substrate, is transferred to the fluorophore resulting in an increase in BRET. In presence of an unlabelled compound, the unlabelled compound displaces the fluorophore-labelled peptide from its binding site resulting in a decrease in BRET. The concentration for which half of the fluorophore-labelled peptide is displaced by the unlabelled compound depends on the affinity of the compound for the IL-23R, and is termed the IC50 concentration.
The plasmid also contained a gene to confer resistance for the antibiotic hygromycin. A cell line stably expressing the Nluc-IL23R fusion protein was generated by transfection of HEK293 cells with the expression plasmid and selected with hygromycin for 3 weeks in Growth medium consisting of DMEM w/ Glutamax-I containing, 10% V/V FBS, 1% V/V P/S, 1 mM Sodium Pyruvate, and 1X NEAA, and 0.3 mg/mL hygromycin. The remaining cells were propagated and considered a stable expressing Nluc-IL23R fusion protein pool clone.
Cells expressing the Nluc-IL23R fusion protein were expanded in Growth medium and membranes prepared by homogenization of a cell pellet from 18 T175 flasks (4 °C in subsequent steps). The cell pellet was lysed Tris 10 mM, 7.5, 1 mM EDTA and protease inhibitors (Complete, Roche) and homogenized using a 15 mL glass-dounce by 50 strokes. The homogenate was spun at spin @1500 rpm for 10 min, the supernatant transferred to SV-34 tubes and spun at 40000g for 20 min at 4 °C to pellet the crude membranes. The supernatant was then removed, the pellet resuspended in 5 mL buffer containing 50 mM HEPES pH 7.4, 5 mM EGTA, and 5 mM MgCl2, and homogenized. Aliquots of the resuspended and homogenized membranes containing the Nluc-IL23R fusion protein were stored at -80 °C until use.
The plate was sealed with light impermeable plate seals, and incubated on an orbital shaker 400 rpm for 2 hours at room temperature. To determine the BRET ratio, the plate seal was removed and 25 µL of the Nanoluc substrate (Promega N1572) diluted 1:500 was added to each well and incubated for 1-2 minutes on an orbital shaker at 400 rpm. […] The BRET ratio was calculated as the fluorescence from the TAMRA/nanoluc bioluminescence.
Compound potency (IC50) and maximal displacement (% displacement) were estimated by computer-aided curve fitting using a 4-parameter logistic (4PL) non-linear model. […]
In this application, the inventors provide the data as IC50 values.

[1] = target: T2, human IL-23R endogenously expressed on DB cells (human, UniProt Q5VWK5 24-629); assay: cell-based or functional assay
T2 sequence (looked up): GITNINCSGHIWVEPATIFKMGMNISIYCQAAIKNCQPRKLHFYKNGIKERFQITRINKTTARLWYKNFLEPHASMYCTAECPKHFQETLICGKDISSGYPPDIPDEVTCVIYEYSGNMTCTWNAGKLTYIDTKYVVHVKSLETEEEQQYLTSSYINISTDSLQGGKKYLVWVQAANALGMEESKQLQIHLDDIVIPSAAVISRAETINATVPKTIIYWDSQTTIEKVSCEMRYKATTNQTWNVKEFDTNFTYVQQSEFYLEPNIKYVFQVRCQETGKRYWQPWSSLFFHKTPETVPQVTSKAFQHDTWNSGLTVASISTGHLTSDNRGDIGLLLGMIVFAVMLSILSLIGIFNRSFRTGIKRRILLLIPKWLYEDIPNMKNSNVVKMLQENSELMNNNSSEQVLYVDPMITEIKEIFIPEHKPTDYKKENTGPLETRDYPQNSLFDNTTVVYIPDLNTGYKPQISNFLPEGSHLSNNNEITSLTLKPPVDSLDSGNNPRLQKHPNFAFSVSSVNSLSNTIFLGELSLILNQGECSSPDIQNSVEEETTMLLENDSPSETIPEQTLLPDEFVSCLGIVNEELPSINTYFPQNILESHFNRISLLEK

% displacement (hIL-23R binding) (human IL-23R): 100%
Molecule: CNC(=O)[C@H](Cc1cccnc1)NC(=O)[C@H](CCN)NC(=O)[C@@H]1CCC(=O)NCc2ccc(cc2)CC(=O)N[C@@H](C)C(=O)N[C@H]2CCC(=O)NCC[C@H](NC(=O)[C@H](CCC(N)=O)NC(=O)[C@H](Cc3c[nH]c4ccccc34)NC2=O)C(=O)N[C@@H](Cc2ccc(OCCN)cc2)C(=O)N[C@@H](CC2CC2)C(=O)NC(C)(C)C(=O)N1 [Compound 42, [4-Aminomethyl-phenylacetyl](1c)*AE(2c)WQ[Dab](2c)[Y(2-aminoethoxy)][Cyclopropyl-Ala][Aib]E(1c)[Dab][3-(3-Pyridyl)-Ala]-[NHMe]]

IC50 (human IL-23R): 0.27 nM | Emax (human IL-23R): 100%
Molecule: CNC(=O)[C@H](Cc1cccnc1)NC(=O)[C@H](CCN)NC(=O)[C@@H]1CCC(=O)NCc2ccc(cc2)CC(=O)N[C@@H](C)C(=O)N[C@H]2CCC(=O)NCC[C@H](NC(=O)[C@H](CCC(N)=O)NC(=O)[C@H](Cc3c[nH]c4ccccc34)NC2=O)C(=O)N[C@@H](Cc2ccc(OCCN)cc2)C(=O)N[C@@H](Cc2c[nH]c3ncccc23)C(=O)NC(C)(C)C(=O)N1 [Compound 44, [4-Aminomethyl-phenylacetyl](1c)*AE(2c)WQ[Dab](2c)[Y(2-aminoethoxy)][7-AzaTrp][Aib]E(1c)[Dab][3-(3-Pyridyl)-Ala]-[NHMe]]

% displacement (hIL-23R binding) (human IL-23R): 104% | IC50 (human IL-23R): 4.2 nM
Molecule: CNC(=O)[C@H](Cc1cccnc1)NC(=O)[C@H](CCN)NC(=O)[C@@H]1CCC(=O)NCc2ccc(cc2)CC(=O)N[C@@H](C)C(=O)N[C@H]2CCC(=O)NCC[C@H](NC(=O)[C@H](CCC(N)=O)NC(=O)[C@H](Cc3c[nH]c4ccccc34)NC2=O)C(=O)N[C@@H](Cc2c[nH]c3ccccc23)CC(=O)N[C@@H](Cc2ccc3ccccc3c2)C(=O)NC(C)(C)C(=O)N1 [Compound 45, [4-Aminomethyl-phenylacetyl](1c)*AE(2c)WQ[Dab](2c)[beta-hTrp][2-Nal][Aib]E(1c)[Dab][3-(3-Pyridyl)-Ala]-[NHMe]]

IC50 (human IL-23R): 57 nM | Emax (human IL-23R): 101%
Molecule: CNC(=O)[C@H](Cc1cccnc1)NC(=O)[C@H](CCN)NC(=O)[C@@H]1CCC(=O)NCc2ccc(cc2)CC(=O)N[C@@H](C)C(=O)N[C@H]2CCC(=O)NCC[C@H](NC(=O)[C@H](CCC(N)=O)NC(=O)[C@H](Cc3c[nH]c4ccccc34)NC2=O)C(=O)N[C@@H](Cc2ccc(OCCN)cc2)C(=O)N[C@@H](Cc2c[nH]c3ccccc23)CC(=O)NC(C)(C)C(=O)N1 [Compound 46, [4-Aminomethyl-phenylacetyl](1c)*AE(2c)WQ[Dab](2c)[Y(2-aminoethoxy)][beta-hTrp][Aib]E(1c)[Dab][3-(3-Pyridyl)-Ala]-[NHMe]]

Emax (human IL-23R): 103%
Molecule: CNC(=O)[C@H](Cc1cccnc1)NC(=O)[C@H](CCN)NC(=O)[C@@H]1CCC(=O)NCc2ccc(cc2)CC(=O)N[C@@H](C)C(=O)N[C@H]2CCC(=O)NCC[C@H](NC(=O)[C@H](CCC(N)=O)NC(=O)[C@H](Cc3c[nH]c4ccccc34)NC2=O)C(=O)N[C@@H](Cc2c[nH]c3c(F)cccc23)C(=O)N[C@@H](Cc2ccc3ccccc3c2)C(=O)NC(C)(C)C(=O)N1 [Compound 47, [4-Aminomethyl-phenylacetyl](1c)*AE(2c)WQ[Dab](2c)[7-F-Trp][2-Nal][Aib]E(1c)[Dab][3-(3-Pyridyl)-Ala]-[NHMe]]

% displacement (hIL-23R binding) (human IL-23R): 105%
Molecule: CC(C)C[C@]1(C)NC(=O)[C@H](Cc2ccc3ccccc3c2)NC(=O)[C@H](Cc2ccc(OCCN)cc2)NC(=O)[C@@H]2CCNC(=O)CC[C@H](NC(=O)[C@H](CO)NC(=O)Cc3ccc(cc3)CNC(=O)CC[C@@H](C(=O)N[C@@H](CCN)C(N)=O)NC1=O)C(=O)N[C@@H](Cc1c[nH]c3ccccc13)C(=O)N[C@@H](CCC(=O)N1CCCC1)C(=O)N2 [Ref 146, [4-Aminomethyl-phenylacetyl](1c)*SE(2c)W[Q(pyrrolidin)][Dab](2c)[Y(2-aminoethoxy)][2-Nal][2-Me-Leu]E(1c)[Dab]-[NH2], reference compound] ([X1]SEWE(Pyrrolidide)[Dab][AEF][2Nal][αMeL]E[Dab]-NH2; lactam 3-6, N-10)

hIL-23 (pSTAT3) antagonist % inhibition [1]: 98% | hIL-23 (pSTAT3) antagonist IC50 [1]: 21 nM
B1: Ref 125 (peptide)
peptide: [4‑Aminomethyl‑phenylacetyl]SEWQ[Dab][AEF][2Nal][αMeL]E[Dab]-NH2
modifications: lactam (positions not given here); lactam 3-6; not fully specified (bridges); printed as [4-Aminomethyl-phenylacetyl](1c)*SE(2c)WQ[Dab](2c)[Y(2-aminoethoxy)][2-Nal][2-Me-Leu]E(1c)[Dab]-[NH2]

hIL-23 (pSTAT3) antagonist % inhibition [1]: 97% | hIL-23 (pSTAT3) antagonist IC50 [1]: 1.4 nM
Molecule: [4‑Aminomethyl‑phenylacetyl]SEWQ[Dab][AEF][2Nal][αMeL]E[dGly‑CF3][3Pal]-NH2 (lactam (positions not given here); lactam 3-6; not fully specified (bridges)) [Compound 16]

hIL-23 (pSTAT3) antagonist % inhibition [1]: 100%
Molecule: H-DCSCWQCWWLCR-NH2 (bridge 4-7, 2-11; not fully specified (bridges)) [I3 (isomer 3)]
